Our source for the inhibition values is paper PMC6934184, “Selective DNA-PKcs inhibition extends the therapeutic index of localized radiotherapy and chemotherapy” (The Journal of Clinical Investigation, 2019).

This assay addresses T1, PHKG2 (Homo sapiens, UniProt P15735).
T1 construct: purchased Thermo Fisher Scientific (Life Technologies) SelectScreen
Description: SelectScreen Z'LYTE. Type of assay: biochemical. The gist of the method: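 NU5455 was profiled across the SelectScreen Broad panel of kinase activity and binding assays. Z'LYTE reactions such as CSF1R ran at apparent Km ATP, while the Adapta CAMK1 assay used ATP listed as 10. Values are given as percent.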

T1 sequence (P15735 whole entry): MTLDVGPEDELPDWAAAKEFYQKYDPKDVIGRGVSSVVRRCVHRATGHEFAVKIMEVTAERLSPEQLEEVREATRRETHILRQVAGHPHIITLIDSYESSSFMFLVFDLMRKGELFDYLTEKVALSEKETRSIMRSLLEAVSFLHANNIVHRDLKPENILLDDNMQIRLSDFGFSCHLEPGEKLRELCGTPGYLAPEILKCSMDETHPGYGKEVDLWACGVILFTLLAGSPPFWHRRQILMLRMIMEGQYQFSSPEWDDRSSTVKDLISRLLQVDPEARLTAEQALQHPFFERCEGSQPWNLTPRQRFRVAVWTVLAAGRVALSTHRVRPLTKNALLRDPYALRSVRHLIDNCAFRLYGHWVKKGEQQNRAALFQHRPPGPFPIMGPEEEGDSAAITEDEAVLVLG

As for `CN(C(=O)CN1CCOCC1)c1ccc2sc3c(-c4cccc5c(=O)cc(N6CC7CCC(C6)O7)oc45)cccc3c2c1` [NU5455], the inhibition at 1 µM is -3.6%.

What is called inhibition is the relative decrease from the control value, in per cent.
